What was measured:
Format in all cases: in vivo
[1] = test system: flower-of-an-hour (Hibiscus trionum); experiment: Test A: field test, percent weed control of flower-of-an-hour; details: seven weeks after treatment
Source text: (§1) In test A, soybeans, peanuts, lima beans, green beans and squash were planted in a field infested with the following weed seeds: crabgrass (Digitaria sanquinalis), foxtails (Setaria spp.), barnyardgrass (Echinochloa crusgalli), pigweed (Amaranthus spp.), ragweed (Ambrosia artemisiifolia), velvetleaf (Abutilon theophrasti), purslane (Portulaca oleracea) and flower-of-an-hour (Hibiscus trionum). A 50% wettable powder formulation of 2-(4-chloro-2-fluorophenyl)-4,5,6,7-tetrahydro-2H-isoindole-1,3-dione was applied in the form of an aqueous suspension at rates of 0.125, 0.25, 0.5 and 1.0 kg/ha, each treatment replicated twice. The plots were rated for percent weed control and crop response seven weeks after treatment. Crop response was expressed on a scale of 0 = no injury to 10 = complete kill.

[2] = test system: barnyardgrass (Echinochloa crusgalli); experiment: Test A: field test, percent weed control of barnyardgrass; details: seven weeks after treatment
Source text: as §1

naturally emerging weeds = experiment: Test B: control of naturally emerging weeds, comparison of treatments
Source text: Test B involved a field sown to carrots and in which the following weed species emerged naturally: crabgrass (Digitaria sanquinalis), foxtails (Setaria spp.), barnyardgrass (Echinochloa crusgalli), pigweed (Amaranthus spp.), ragweed (Ambrosia artemisiifolia), velvetleaf (Abutilon theophrasti), smartweed (Polygonum spp.) and lambsquarters (Chenopodium album). Sixteen days after sowing, when all species of weeds had emerged, the plants were sprayed overall with a 50% wettable powder formulation of 2-(4-chloro-2-fluorophenyl)4,5,6,7-tetrahydro-2H-isoindole-1,3dione (Treatment I) in the form of an aqueous suspension, at rates of 0.5, 1.0, 2.0 and 4.0 kg/ha, and with 2-(4-chlorophenyl)-4,5,6,7-tetrahydro-2H-isoindole-1,3-dione (Treatment II) in the same form and at the same rates. The spray volume was 425 l/ha. The surfactant Tween 20* was added to all treatments in a concentration of 0.1% by weight. Six weeks after treatment, visual observations were made of percent weed control obtained and, for carrots, crop response.
*Tween 20 -- A trademark of ICI of America which is the reaction product of sorbitan monolaurate with an average of 20 moles of ethylene oxide.

[3] = test system: pigweed (Amaranthus spp.); experiment: Test A: field test, percent weed control of pigweed; details: seven weeks after treatment
Source text: as §1

lima beans = experiment: Test A: field test, crop response of lima beans; details: seven weeks, 0 = no injury to 10 = complete kill
Source text: as §1

foxtails (Setaria spp.) = experiment: Test A: field test, percent weed control of foxtails; details: seven weeks after treatment
Source text: as §1

squash = experiment: Test A: field test, crop response of squash; details: seven weeks, 0 = no injury to 10 = complete kill
Source text: as §1

[4] = test system: ragweed (Ambrosia artemisiifolia); experiment: Test A: field test, percent weed control of ragweed; details: seven weeks after treatment
Source text: as §1

`O=C1C2=C(CCCC2)C(=O)N1c1ccc(Cl)cc1F` [Treatment I, 2-(4-chloro-2-fluorophenyl)-4,5,6,7-tetrahydro-2H-isoindole-1,3-dione] was tested, and the “% Control, Flower-of-an-Hour” value ([1]; 0.125 kg/ha) was 87%, the “% Control, Flower-of-an-Hour” value ([1]; 0.25 kg/ha) was 99% and the “% Control, Flower-of-an-Hour” value ([1]; 0.50 kg/ha) was 99%. The “% Control, Flower-of-an-Hour” value ([1]; 1.00 kg/ha) was 100%, the “% Control, Barnyardgrass” value ([2]; 0.125 kg/ha) was 45% and the “% Control, Barnyardgrass” value ([2]; 0.25 kg/ha) was 82%. For the same compound, the “% Control, Barnyardgrass” value ([2]; 0.50 kg/ha) was 98%, the “% Control, Barnyardgrass” value ([2]; 1.00 kg/ha) was 99% and the “control of crabgrass, foxtails and barnyardgrass, in words” value (naturally emerging weeds; compared to Treatment II) was “outstanding when compared to Treatment II”. For the same compound, the “% control results, in words” value (naturally emerging weeds; eight naturally emerging weeds, versus Treatment II) was “clearly superior to Treatment II”, the “% Control, Pigweed” value ([3]; 0.125 kg/ha) was 90% and the “% Control, Pigweed” value ([3]; 0.25 kg/ha) was 98%. For the same compound, the “% Control, Pigweed” value ([3]; 0.50 kg/ha) was 95%, the “% Control, Pigweed” value ([3]; 1.00 kg/ha) was 100% and the “Crop Response, Lima beans” value (lima beans; 0.125 kg/ha) was 0. For the same compound, the “Crop Response, Lima beans” value (lima beans; 0.25 kg/ha) was 1, the “Crop Response, Lima beans” value (lima beans; 0.50 kg/ha) was 4 and the “Crop Response, Lima beans” value (lima beans; 1.00 kg/ha) was 8.5. The “% Control, Foxtail” value (foxtails (Setaria spp.); 0.125 kg/ha) was 40%, the “% Control, Foxtail” value (foxtails (Setaria spp.); 0.25 kg/ha) was 82% and the “% Control, Foxtail” value (foxtails (Setaria spp.); 0.50 kg/ha) was 95%. For the same compound, the “% Control, Foxtail” value (foxtails (Setaria spp.); 1.00 kg/ha) was 99%, the “Crop Response, Squash” value (squash; 0.125 kg/ha) was 2 and the “Crop Response, Squash” value (squash; 0.25 kg/ha) was 2. For the same compound, the “Crop Response, Squash” value (squash; 0.50 kg/ha) was 6, the “Crop Response, Squash” value (squash; 1.00 kg/ha) was 9.5 and the “% Control, Ragweed” value ([4]; 0.125 kg/ha) was 90%. The “% Control, Ragweed” value ([4]; 0.25 kg/ha) was 99%, the “% Control, Ragweed” value ([4]; 0.50 kg/ha) was 99% and the “% Control, Ragweed” value ([4]; 1.00 kg/ha) was 100%.
